For assay [1], the target named is T1, Replicative DNA helicase DnaB (Mycobacterium tuberculosis, UniProt P9WMR3).
T1 sequence (P9WMR3 whole entry): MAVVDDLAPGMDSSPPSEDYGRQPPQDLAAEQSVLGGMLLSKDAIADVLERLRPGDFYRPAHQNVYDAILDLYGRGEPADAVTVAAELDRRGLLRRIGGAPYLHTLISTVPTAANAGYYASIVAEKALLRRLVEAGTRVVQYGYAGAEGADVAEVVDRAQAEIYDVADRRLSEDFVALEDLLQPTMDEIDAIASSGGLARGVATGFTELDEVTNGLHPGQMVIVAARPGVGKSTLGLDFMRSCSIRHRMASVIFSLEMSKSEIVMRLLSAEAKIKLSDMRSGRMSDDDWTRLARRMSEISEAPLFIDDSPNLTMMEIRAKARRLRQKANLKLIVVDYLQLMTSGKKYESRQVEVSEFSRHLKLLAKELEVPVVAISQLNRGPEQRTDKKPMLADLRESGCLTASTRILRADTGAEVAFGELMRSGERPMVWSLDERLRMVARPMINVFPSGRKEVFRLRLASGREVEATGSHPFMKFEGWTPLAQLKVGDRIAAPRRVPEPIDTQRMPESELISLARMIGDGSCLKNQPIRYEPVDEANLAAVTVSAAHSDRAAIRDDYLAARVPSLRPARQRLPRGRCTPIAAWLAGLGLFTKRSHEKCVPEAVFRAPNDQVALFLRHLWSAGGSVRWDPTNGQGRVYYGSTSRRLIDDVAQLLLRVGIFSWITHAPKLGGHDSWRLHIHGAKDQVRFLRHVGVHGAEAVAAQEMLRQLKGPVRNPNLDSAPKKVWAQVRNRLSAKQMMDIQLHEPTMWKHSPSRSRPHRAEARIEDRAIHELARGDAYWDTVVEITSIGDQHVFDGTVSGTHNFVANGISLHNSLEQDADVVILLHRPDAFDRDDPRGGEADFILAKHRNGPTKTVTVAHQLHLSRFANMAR
The assay can be described thus: DnaB intein splicing inhibitors, dose response, biochemical, cell-free fluorescence (AID 449749). Format: functional.

For the next assay, the target named is T2, Protein RecA (Mycobacterium tuberculosis, UniProt P9WHJ3).
T2 sequence (P9WHJ3 whole entry): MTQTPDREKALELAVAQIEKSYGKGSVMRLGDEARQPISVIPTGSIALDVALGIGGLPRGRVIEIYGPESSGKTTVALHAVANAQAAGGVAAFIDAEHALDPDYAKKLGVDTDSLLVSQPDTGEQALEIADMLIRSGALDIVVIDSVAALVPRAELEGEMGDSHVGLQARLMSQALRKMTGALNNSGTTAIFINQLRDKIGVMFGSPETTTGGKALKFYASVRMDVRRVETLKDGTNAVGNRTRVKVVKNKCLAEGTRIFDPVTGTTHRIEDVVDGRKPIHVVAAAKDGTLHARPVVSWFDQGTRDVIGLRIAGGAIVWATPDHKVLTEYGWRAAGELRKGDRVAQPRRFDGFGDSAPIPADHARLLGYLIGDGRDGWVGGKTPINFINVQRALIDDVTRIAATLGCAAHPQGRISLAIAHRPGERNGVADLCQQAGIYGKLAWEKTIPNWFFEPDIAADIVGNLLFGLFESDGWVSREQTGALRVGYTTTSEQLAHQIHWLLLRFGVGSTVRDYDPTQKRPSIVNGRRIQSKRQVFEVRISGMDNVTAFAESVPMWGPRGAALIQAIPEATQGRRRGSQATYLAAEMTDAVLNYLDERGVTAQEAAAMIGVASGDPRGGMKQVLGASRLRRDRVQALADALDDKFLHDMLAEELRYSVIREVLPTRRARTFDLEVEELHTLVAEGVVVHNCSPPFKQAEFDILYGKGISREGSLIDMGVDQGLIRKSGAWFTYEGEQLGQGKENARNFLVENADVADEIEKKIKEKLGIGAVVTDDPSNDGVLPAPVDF
The assay can be described thus: Fluorescence Cell-Free Homogeneous Dose Retest to Identify Inhibitors of RecA-Intein Splicing Activity. [Related pubchem assays (depositor defined):AID2097, AID2223, AID489010, AID492950]. In kind it is functional.

In the next assay the test system is INS1. The assay can be described thus: INS-1E survival protection against cytokine death – cell-based, luminescence, retest, dose response (AID 449756).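 Also: cell death triggered by IL-1 beta plus TNF-alpha plus IFN-gamma mixture; protective hits raise ATP signal compared with cytokine alone wells.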 In kind it is functional. As to conditions: Rattus norvegicus.
The target of assay [2] is T3, Heat shock factor protein 1 (Mus musculus, UniProt P38532).
T3 sequence (P38532 whole entry): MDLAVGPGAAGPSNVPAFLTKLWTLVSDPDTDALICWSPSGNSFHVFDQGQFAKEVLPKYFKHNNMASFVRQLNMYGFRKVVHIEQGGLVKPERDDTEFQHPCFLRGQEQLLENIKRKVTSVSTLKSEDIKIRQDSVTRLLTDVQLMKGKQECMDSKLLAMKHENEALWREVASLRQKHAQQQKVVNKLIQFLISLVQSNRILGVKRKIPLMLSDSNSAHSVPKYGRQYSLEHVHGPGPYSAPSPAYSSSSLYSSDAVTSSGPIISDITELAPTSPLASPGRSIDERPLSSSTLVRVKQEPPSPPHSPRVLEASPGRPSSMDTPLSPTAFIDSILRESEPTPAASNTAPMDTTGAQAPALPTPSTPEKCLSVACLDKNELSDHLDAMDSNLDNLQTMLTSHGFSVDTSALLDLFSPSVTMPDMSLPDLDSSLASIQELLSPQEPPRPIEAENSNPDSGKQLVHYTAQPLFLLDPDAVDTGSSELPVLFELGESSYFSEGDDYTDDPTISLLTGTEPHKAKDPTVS
Nature of the assay: enhancement of HSF1-driven luciferase signal – cell-based, NIH3T3, luminescence, dose retest, confirmation (AID 435004).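 Also: stress induced by proteasome inhibitor MG132 added 30 min after compound; luciferase reporter driven by HSF1 response element in NIH3T3 cells; actives raise luminescence as potentiators of the MG132 stress response.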 In kind it is functional.

Assay [3] is described as follows: Trypanosoma cruzi growth suppression in host cells – NIH3T3 host cells, beta-gal luminescence, confirmation (AID 2044).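 Also: intracellular parasites grown in NIH/3T3 mouse fibroblasts as host cells; luminescent beta-galactosidase reporter signal from transgenic T. cruzi replicating inside host cells; inhibitors lower the luminescence signal.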 In kind it is functional, cell-based.
Assay [4] is described as follows: NIH3T3 cell viability loss – ATP luminescence, mouse fibroblasts, counter-screen, dose response (AID 2010).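 Also: cells exposed to compound for about 90 hours before reading.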 Format: functional, cell-based. In general terms: The purpose of a counterscreen is to sort out artefacts and off-target activity.
The nature of assay [5]: luciferase reporter signal suppression in cells – H4 neuroglioma cells, luminescence, dose response (AID 1990). In kind it is functional, cell-based. Background: In a reporter assay the amount or activity of a reporter protein is the signal.
The nature of assay [6]: Luminescence Cell-Based Dose Response HTS to Identify Inhibitors of 5'UTR Stem-Loop Driven Prion Protein mRNA Translation in H4 Neuroglioblastoma Cells. [Related pubchem assays: 1827 (Project Summary), 1813 (Primary HTS)]. Format: functional.
Assay [7] in a line: alpha-synuclein stem-loop luciferase translation blockers – H4 neuroglioma cells, luminescence, confirmation (AID 1988). Format: functional, cell-based.
The nature of assay [8]: viability of uninfected HEp-2 cells – cell-based, HTS, cytotoxicity control for RSV inhibitor project, dose response (AID 2410). As to conditions: human respiratory syncytial virus. In kind it is functional.
A short description of assay [9]: Luminescence Cell-Based Dose Retest to Confirm Inhibitors of Cancer Stem Cells. [Related pubchem assays (depositor defined):AID2717, AID2721]. Format: functional. As to conditions: Homo sapiens.
Another assay addresses Paired box protein Pax-8 (Homo sapiens, UniProt Q06710). Nature of the assay: PAX8 transcriptional activity inhibition in RMG-I – RMG-I cells, luciferase, cherry-pick, dose response (AID 687027).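 Also: luciferase reporter driven by Pax8 target thyroperoxidase promoter measured by SteadyGlo luminescence.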 In kind it is functional, cell-based.

What is called AC50 is the midpoint of the concentration-response curve, whichever way the signal moves. As usually defined, the EC50 is the concentration at which the effect is half-maximal. As usually defined, the CC50 is the concentration at which the toxic effect on the cells reaches its halfway point.

Molecules are shown by their SMILES. The source made the active and inactive calls. Rule as the data show it, for most assays here: actives have a measured EC50 and inactives only a lower limit. Bounds are passed on as bounds.

Paired box protein Pax-8, sequence (Q06710 whole entry): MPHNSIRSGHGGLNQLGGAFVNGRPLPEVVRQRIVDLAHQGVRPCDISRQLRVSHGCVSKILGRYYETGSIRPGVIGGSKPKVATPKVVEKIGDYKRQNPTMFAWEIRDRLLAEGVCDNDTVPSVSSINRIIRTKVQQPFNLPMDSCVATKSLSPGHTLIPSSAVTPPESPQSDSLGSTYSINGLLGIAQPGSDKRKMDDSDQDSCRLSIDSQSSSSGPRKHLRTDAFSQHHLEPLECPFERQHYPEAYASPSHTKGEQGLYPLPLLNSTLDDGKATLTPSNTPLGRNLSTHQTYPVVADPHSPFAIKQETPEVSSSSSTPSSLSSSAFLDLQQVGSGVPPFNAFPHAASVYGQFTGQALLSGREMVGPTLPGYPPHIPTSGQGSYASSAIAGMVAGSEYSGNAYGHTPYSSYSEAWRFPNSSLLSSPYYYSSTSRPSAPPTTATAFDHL

As to `CC(=O)Nc1ccccc1NC(=O)C/C(C)=N/NC(=O)C(=O)N1CCCCC1`, the concentration at half-maximal activity (AC50) in assay [1] was 5.84 µM (active). The EC50 at Protein RecA was 0.891 µM (active).

For `CCC(=NNC(=O)c1ccc2c(c1)nc(C)n2CC)c1cc(F)ccc1O`, the AC50 in the assay on INS1 was 2.32 µM (active).

Take `O=C(Cc1cc(O)n[nH]1)N/N=C/c1c(F)cccc1Cl`: the AC50 in assay [1] is 1.87 µM (active). On Protein RecA, the EC50 was 1.53 µM (active).

Consider `COc1ccc(C(=O)Nc2ccc(O)c3ccccc23)cc1OC`, for which, in assay [1], the concentration at half-maximal activity (AC50) was 82 µM (active). On Protein RecA, the EC50 is 8.4 µM (active).

For the molecule `COCCCNC(=O)CCn1c(=O)c2ccccc2n(CC(=O)Nc2cc(Cl)ccc2C)c1=O`, the EC50 in [2] was > 260 µM (inactive).

As to `O=C(c1ccc(F)c(S(=O)(=O)N2CCOCC2)c1)N1CCN(c2ccc(F)cc2)CC1`, the AC50 in the assay with INS1 is > 260 µM (inactive).

`C/C(=N\N1C(=O)c2ccccc2NC1c1ccco1)c1ccccc1O` (stereo not drawn): the EC50 in [3] is 1.66 µM (active); in assay [4], 4.99 µM (active). Besides, the AC50 in the assay with INS1 is 2.21 µM (active).

Regarding `CC1(c2ccccc2)CC(C)(C)n2c(O)c(C3=NC(=S)NC3=O)c3cccc1c32` (stereo not drawn), the EC50 in assay [5] is 20.5 µM (active); in [6], 17.6 µM (active); in assay [7], 22.8 µM (active).

In the case of `Cc1cc2oc3c(c(=O)c2cc1C)C(c1ccc(C(C)C)cc1)N(CCCN1CCOCC1)C3=O` (stereo not drawn), the EC50 in [2] was > 260 µM (inactive).

As for `COC(=O)C1C/C(=N\NS(=O)(=O)c2ccc(C)cc2)c2sccc2C1` (stereo not drawn), the EC50 in [5], in assay [6] and in [7] was > 120 µM (not active) each time.

In the case of `FC(F)(F)c1cccc(OCc2nnc3n2CCC3)c1`, the EC50 in [5], in assay [6] and in assay [7] was > 120 µM (not active) each time.

For the molecule `CCOc1cc(/C=N/NC(=O)Cn2nc([N+](=O)[O-])cc2C)cc(Br)c1OCc1ccccc1C`, the cytotoxic concentration (CC50) in assay [8] was 8.17 µM (active). Further, the EC50 in [3] is 2.32 µM (active); in assay [4], > 60 µM (not active); in assay [2] it was > 260 µM (inactive).

As for `Cc1sc2nc(CSc3cccc(C(F)(F)F)c3)nc(O)c2c1C`, the EC50 in assay [2] is > 260 µM (inactive).

Regarding `CCCCCn1c(Sc2ccccc2)nc2c1c(=O)[nH]c(=O)n2C`, the EC50 in assay [5] is 5.33 µM (active); in assay [6], 20.1 µM (active); in assay [7], 16.9 µM (active).

`N#CC1=C(N)Oc2[nH]nc(-c3ccncc3)c2C1c1ccsc1` (stereo not drawn): the AC50 in assay [1] was 13.4 µM (active). Also, on Protein RecA, the EC50 was 3.27 µM (active).

As for `CC(=O)c1ccc(-c2ccccc2[C@H]2[C@H]3C=CC[C@@H](C)[C@@H]3C(=O)N2Cc2ccccc2)cc1`, the results for the EC50 in assay [5], in assay [6] and in assay [7] were 30 µM (active), > 120 µM (not active) and 22.4 µM (active), respectively.

Consider `Cc1c(/C=N/NC(=O)c2ccc(Br)o2)cnn1C`, for which the EC50 in assay [2] was > 260 µM (inactive).

Consider `Cc1cc(Cl)ccc1OCC(=O)Nc1ccccc1N1CCOCC1`, for which the figures for the EC50 in [5], in [6] and in [7] were 18.2 µM (active), > 120 µM (not active) and > 120 µM (not active), respectively.

`Cc1cc2oc(=O)c(CC(=O)NCCCN(C)C)c(C)c2c2occ(C(C)(C)C)c12`: the EC50 is > 120 µM (not active) in assay [5]; 12.6 µM (active) in [6]; 8.72 µM (active) in [7]; 2.29 µM (active) in [3]; 4.86 µM (active) in assay [4]. Also, the AC50 in assay [9] is 1.22 µM (active).

Take `COc1ccccc1NC(=O)C1=C(C)N=C2CC(c3ccc(OC)c(OC)c3)CC(O)=C2C1c1coc2ccccc2c1=O` (stereo not drawn): in [2], the EC50 was 34.5 µM (active).

Take `N#CC1=C(N)Oc2[nH]nc(-c3cccs3)c2C1c1ccccc1C(=O)O` (stereo not drawn): the AC50 in assay [1] was 2.69 µM (active). Also, at Protein RecA, the EC50 is 1.56 µM (active).

For `Cc1cc(Oc2ccc(=O)n(C)n2)nc(SCc2ccccc2)n1`, the EC50 in assay [5] is > 120 µM (not active); in assay [6], 16.6 µM (active); in assay [7], 22.1 µM (active).

For the molecule `COCCn1c(=O)[nH]c2cc(C(=O)N3CCN(c4cccc(Cl)c4)CC3)ccc2c1=O`, the EC50 in assay [2] is > 260 µM (inactive).

Consider `O=C(Nc1ccc(F)cc1F)N1CCCN(CCOc2ccccc2)CC1`, for which the AC50 in the assay on INS1 was 13.3 µM (active).

Turning to `COc1ccc(C2=Nn3c(nnc3-c3ccccn3)SC2)cc1OC`, the EC50 is 20.8 µM (active) in assay [5], > 120 µM (not active) in assay [6] and 17.2 µM (active) in assay [7].

As for `C[C@@H]1CCCCO[C@H](CN(C)C)[C@H](C)CN([C@H](C)CO)C(=O)c2cc(NC(=O)Nc3cccc4ccccc34)ccc2O1`, on Paired box protein Pax-8, the AC50 is 33.5 µM (active).

For `CC(=O)Nc1nnc(SCC(=O)c2ccc(F)cc2)s1`, the EC50 in assay [2] was 67.4 µM (active).

With `Cc1ccc(C(=O)Oc2ccc([N+](=O)[O-])cc2)cc1S(=O)(=O)N1CCCCCC1`, the AC50 in [1] was 3.4 µM (active). Also, the EC50 on Protein RecA was 4.99 µM (active).

On to `COP(=O)(OC)c1nc(-c2cccc3ccccc23)oc1NCc1ccccc1`, for which, in assay [2], the EC50 was > 260 µM (inactive).

On to `Cc1cc(C)nc(N/N=C2/CCCC/C2=C\c2ccccc2)n1`, for which the concentration at half-maximal activity (AC50) with INS1 is 0.397 µM (active).

For `CCn1c(-c2ccccc2)c(C(=O)CCl)c2ccccc21`, the 50% effective concentration (EC50) in assay [3] was 1.42 µM (active); in assay [4], 4.12 µM (active); in [2], 7.71 µM (active); on Protein RecA it was 1.05 µM (active). The figures for the AC50 (in [1]; in the assay on INS1) were 3.27 µM (active) and 7.82 µM (active), respectively.

These data come from ChEMBL document CHEMBL1201862, “PubChem BioAssay data set” (2004).
